Measured values taken from article PMC4279419, “Angiostatic, tumor inflammatory and anti-tumor effects of CXCL4^47–70 and CXCL4L1^47–70 in an EGF-dependent breast cancer model” (Oncotarget, 2014).
Where no end group is shown, it is not given here. The star is where a group is joined. Biotin = O=C1N[C@H]2[C@H](CS[C@H]2CCCCC(=O)*)N1

Columns and labels:
CXCR3A = assay: Calcium signaling in CXCR3A-transfectants; format: cell-based; details: CXCL10 5 ng/ml after prestimulation with buffer; CHO/CXCR3A; fura 2
Excerpt: We further tried to reveal the mode of action of CXCL4^47–70 and CXCL4L1^47–70. First, we excluded that either peptide still binds/activates one of the CXCR3 isoforms, the receptors for intact CXCL4 and CXCL4L1. […]
inhibit signaling by intact CXCL10. To study interaction of CXCL447–70 and CXCL4L147–70 with CXCR3A, CHO cells stably transfected with CXCR3A were loaded with the fluorescent dye fura 2 (Struyf et al. J. Immunol. 2009, 182:666). Changes in the intracellular Ca2+ concentrations ([Ca2+]i) in response to CXCL447–70 or CXCL4L147–70 treatment were monitored using a spectrofluorometer. The line in the spectra indicates the fluorescence intensity ratio (i.e. the fluorescence intensity measured after excitation at 340 nm divided by the fluorescence intensity measured after excitation at 380 nm). The results shown (one representative experiment out of three) illustrate a desensitization experiment, in which CHO/CXCR3A cells were stimulated first with a peptide (2 µg/ml) and 100 s later with intact CXCL10 […]
peptides induced a rise in [Ca2+]i. When the cells were stimulated with 5 ng/ml intact CXCL10 100 s after peptide treatment, the response […]
interact with CXCR3A. Arrows indicate the time of addition of the stimulus.
(also on this page, place not known: www.impactjournals.com/oncotarget/ Oncotarget, Supplementary Materials 2014 CXCL4 47–70 CXCL4L1 47–70 CXCL4 47–70 CXCL4L1 47–70 CXCL4 47–70) […]

[1] = test system: human retinal microvascular endothelial cells (HMVEC); assay: HMVEC MTT proliferation assay; format: cell-based; details: EGF 3 ng/ml; control medium PI=1; 3 to 4 days; MTT OD570–630; mean ± s.e.m., n=7
Experimental: (§1) First, HMVEC and HLEC were seeded at 5 × 10^3 cells/well in EBM-2 + 1% FCS in a 96-well plate, whereas MDA-MB-231 were starved of growth factors overnight by replacing their growth medium with DMEM (serum-free) prior to seeding the tumor cells at 15 × 10^2 cells/well in DMEM + 1% FCS. As for the rest of the assay, the same protocol applies to all cells. Once adherent, cells were incubated with different concentrations of the peptides CXCL4^47–70 and CXCL4L1^47–70 as single stimuli or in combination with recombinant human EGF (3 ng/ml; R&D Systems, Minneapolis, MN) at 37°C/5% CO2. All conditions were tested in triplicate or quadruplicate. After 3 to 4 days, stimulation medium was removed and a sterile MTT solution was added [0.04 g/100 ml thiazolyl blue (Sigma-Aldrich, St. Louis, MO) in 20% PBS/80% RPMI without phenol red (Lonza)] for 3 to 4 hours. The formed formasan crystals were dissolved by replacing the MTT solution with acidic propanol (0.04 M HCl, 0.1% (v/v) Nondet P-40 in absolute isopropanol) and shaking the plate, shielded from light, for 10 minutes. Optical density (OD) was determined at 570 nm and 630 nm. The obtained ODs were processed to proliferation indexes (PI), expressed relative to appropriate buffer controls, i.e. ΔOD570–630X over ΔOD570–630CO.

p21 in HMVEC = assay: Intracellular p21 content in HMVEC (ELISA); format: cell-based, human; details: EGF 20 ng/ml; 15 h; p21:total protein; mean ± s.e.m., n=9; p<0.001 versus control
Experimental: Signaling assays were slightly adapted to the signaling molecules of interest in this study. HMVEC were stimulated with EGF (20 ng/ml) as a single stimulus or in combination with the peptides CXCL4^47–70 and CXCL4L1^47–70 (0.3 to 10 μg/ml) in order to evaluate their impact on the cell cycle-arresting p21. After 15 hours, the cells were washed three times with ice-cold PBS to stop the stimulation and lysis buffer [1 mM EDTA, 0.5% (v/v) Triton-X, 10 mM NaF, 150 mM NaCl, 1 mM DTT in PBS; pH 7.2–7.4] supplemented with a protease inhibitor cocktail (Sigma) was added. Cell residue was removed from the collected lysates by centrifugation (4°C, 10 min, 1666g). Lastly, the intracellular p21 content was determined by DuoSet® IC ELISA (cat n° DYC1047, R&D Systems) while, in parallel, total protein content was measured in a bicinchoninic acid (BCA) protein assay (Pierce, Rockford, IL).

[2] = test system: human dermal lymphatic microvascular endothelial cells (HLEC); assay: HLEC MTT proliferation assay; format: cell-based; details: data not shown
Experimental: as §1

recombinant human CCL5 = molecular target: T1, recombinant human CCL5 (human, UniProt P13501 24-91); assay: ELISA; 50 ng/ml CCL5 in PBS coated overnight at room temperature on high protein-binding ELISA plates, blocked with 0.1% casein; dilution curve of biotinylated peptide at 37 °C; detected with peroxidase-conjugated streptavidin, OD450; details: both partners purified
T1 construct: CCL5, human, recombinant protein; source: bought: PeproTech
T1 sequence (looked up): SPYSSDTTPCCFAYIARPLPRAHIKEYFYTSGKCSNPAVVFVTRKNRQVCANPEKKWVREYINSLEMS

p21 = details: EGF-stimulated endothelial cells; cited from earlier work
Excerpt: Previously, the EGF-induced reduction of the cyclin-dependent kinase inhibitor p21 was described. […] Therefore, we studied the effects of chemokine-derived peptides on p21 levels and, with it, their ability to arrest the cell cycle. Evaluation of the p21 content in HMVEC did confirm CXCL4^47–70 and CXCL4L1^47–70 to counteract the tendency of EGF to reduce p21 (Figure 2). […] Ad ...

monocyte = details: through heteromultimerization with CCL5; cited from earlier work
Excerpt: Concerning direct cytokine ligand interactions, both positive and negative interactions have been described for intact CXCL4 [33, 34, 37, 38] and its carboxy-terminal peptide. […] In this study we chose two cytokines important in our breast cancer model and verified interaction with CXCL4^47–70 and CXCL4L1^47–70: EGF as g ...

endothelial cell = details: compared with CXCL4; cited from earlier work
Excerpt: Angiogenesis, the formation of an ever more branching network of blood vessels from a pre-existing vascular network, has been established as a requisite for successful tumor growth and cancer progression. Anti-angiogenic therapy thus offers a promising approach to tackle one of the leading causes of mortality worldwide. However, classic anti-angiogenic therapeutics have encountered important hurdles and interest in less obvious targets, including inflammatory mediators such as the chemokines, increases. These chemotactic cytokines play an important role in immunity as they ...

For “CXCL10: intact CXCL10, CXCR3 ligand [reference compound]”, the “calcium response to CXCL10” value (CXCR3A) was “significant increase in [Ca2+]i”.

In the case of “EGF: recombinant human EGF (R&D Systems) [reference compound]”, the “Proliferation index (PI), EGF alone” value [1] is reported as 1.42 ± 0.08, the “intracellular p21 relative to control (100%), EGF alone” value (p21 in HMVEC) is reported as 75.82 ± 3.69% and the “HLEC proliferation response to EGF” value [2] is reported as “not responsive to EGF-stimulation”.

B1: NH2-terminally biotinylated CXCL4^47–70 peptide (peptide, UniProt P02776 78-101, looked up)
peptide: Biotin-NGRKICLDLQAPLYKKIIKKLLES
notes: CXCL4/Platelet factor-4 (PF-4), human, last 24 amino acids (residues 47-70) of the 70 amino acid-long mature protein; has Pro58, Lys66, Leu67; numbers count on: the mature protein; The functional assays (chemotaxis, calcium) used the peptide without mention of biotin; also called carboxy-terminal peptide of CXCL4/Platelet factor-4 (PF-4); source: synthetic peptide (Fmoc chemistry, purified by …)
B1: binds (recombinant human CCL5).

B2: CXCL4: natural human CXCL4 isolated from stimulated platelets; 70 amino acid-long mature protein (protein, UniProt P02776 32-101, looked up)
Platelet factor 4: EAEEDGDLQCLCVKTTSQVRPRHITSLEVIKAGPHCPTAQLIATLKNGRKICLDLQAPLYKKIIKKLLES
In the case of B2, the “effect on EGF-induced p21 downregulation” value (p21) is given as “appeared to interfere with this p21 downregulation” and the “effect on CCL5 monocyte chemotactic activity” value (monocyte) is given as “enhances monocyte chemotactic activity of CCL5”.

B3: CXCL4L1: recombinant human CXCL4L1 isolated from baculovirus-infected Sf9 cells (protein, UniProt P10720 31-104, looked up)
Platelet factor 4 variant: FARAEAEEDGDLQCLCVKTTSQVRPRHITSLEVIKAGPHCPTAQLIATLKNGRKICLDLQALLYKKIIKEHLES
For B3, the “inhibition of CXCL8- and FGF2-induced endothelial cell chemotaxis” value (endothelial cell) is listed as “more efficiently than CXCL4”.
